The supplement of paper PMC11208160

Test: recombinant UMI read abundance after kanamycin selection (control-corrected) (log10(CPM+1)); higher = more efficient recombination; extreme values may be limits of the assay; sequences stand for … in AGTGCAGAGAAAATCGGCCAGTTTTCTCTGCCTGCAGTCCGCATGCCGTGGGACCCCTTGGGTTCTAACCTGTTGCCTAGATTTATGCAGCGGACTGCCTTTCTCCCAAAGTGATAAACCGG…AGGTTGGTTTCACT; site = the 11-nt donor
Protocol: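 Pooled E. coli donor-specificity screen for the IS621 bridge recombinase. Each library member carries a reprogrammed 11-nt donor and a full-length LE bridge RNA expressed in cis from the natural promoter, with a paired donor-binding loop (8-nt LDG + 4-nt RDG) and a target-binding loop fixed to T5. It is co-electroporated with a T5 target plasmid; recombinase is induced with 0.07 mM IPTG and recombinants are selected on kanamycin. UMIs are counted as CPM, averaged over two biological replicates and corrected by the unselected control. Molecule = full bridge RNA written as DNA, built from the T5 scaffold: LDG = donor specificity nt 1-8, RDG = reverse complement of nt 8-11.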
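Further: IS621 bridge recombinase in Escherichia coli cells against a fixed T5 target plasmid.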

| Sequence | recombinant UMI read abundance (log10) |
| --- | --- |
| ACACTCCCATGGACCGGTTTTCCCGGTAATCCGTATTTGCG (site CTGACGACTAC) | 0.0266 |
| ACACTGGCATGGACCGGTTTTCCCGGTAATCCGTATTTGAG (site ACACTGGCTCT) | 1.38 |
| ACAGATCCATGGACCGGTTTTCCCGGTAATCCGTATTTGAC (site ACAAATCCTGT) | 0 |
| ACAGATCCATGGACCGGTTTTCCCGGTAATCCGTATTTGAC (site ACACATCCTGT) | 0 |
| ACAGATCCATGGACCGGTTTTCCCGGTAATCCGTATTTGAC (site ACAGATCCTGT) | 0.651 |
| ACAGATCCATGGACCGGTTTTCCCGGTAATCCGTATTTGAC (site ACATATCCTGT) | 0.985 |
| ACAGCATCATGGACCGGTTTTCCCGGTAATCCGTATTTGCA (site ACAGAATCTTG) | 0.803 |
| ACAGCATCATGGACCGGTTTTCCCGGTAATCCGTATTTGCA (site ACAGCATCTTG) | 2.11 |
| ACAGCATCATGGACCGGTTTTCCCGGTAATCCGTATTTGCA (site ACAGGATCTTG) | 0 |
| ACAGCATCATGGACCGGTTTTCCCGGTAATCCGTATTTGCA (site ACAGTATCTTG) | 1.73 |
| ACAGCTTCATGGACCGGTTTTCCCGGTAATCCGTATTTGGC (site ACAGCTTCTGC) | 3.35 |
| ACAGGACCATGGACCGGTTTTCCCGGTAATCCGTATTTGCA (site ACAGGACCTTG) | 0 |
| ACAGGACCATGGACCGGTTTTCCCGGTAATCCGTATTTGCA (site ACAGTATCTTG) | 1.52 |
| ACAGGATCATGGACCGGTTTTCCCGGTAATCCGTATTTGAA (site ACAGGATCTTT) | 2.93 |
| ACAGGATCATGGACCGGTTTTCCCGGTAATCCGTATTTGAA (site ACAGTATCTTG) | 0 |
| ACAGGTGCATGGACCGGTTTTCCCGGTAATCCGTATTTGAT (site ACAGGTGCTAT) | 2.2 |
| ACAGGTGCATGGACCGGTTTTCCCGGTAATCCGTATTTGAT (site CCAGGTGCTAT) | 2.2 |
| ACAGGTGCATGGACCGGTTTTCCCGGTAATCCGTATTTGAT (site GCAGGTGCTAT) | 0.572 |
| ACAGGTGCATGGACCGGTTTTCCCGGTAATCCGTATTTGAT (site TCAGGTGCTAT) | 1.78 |
| ACAGTAACATGGACCGGTTTTCCCGGTAATCCGTATTTGCA (site ACAGTAACTTG) | 2.83 |
| ACAGTAACATGGACCGGTTTTCCCGGTAATCCGTATTTGCA (site ACAGTACCTTG) | 0 |
| ACAGTAACATGGACCGGTTTTCCCGGTAATCCGTATTTGCA (site ACAGTAGCTTG) | 1.39 |
| ACAGTAACATGGACCGGTTTTCCCGGTAATCCGTATTTGCA (site ACAGTATCTTG) | 1.65 |
| ACAGTAACATGGACCGGTTTTCCCGGTAATCCGTATTTGGA (site ACAGTAACTTC) | 2.19 |

| Sequence | recombinant UMI read abundance (log10) |
| --- | --- |
| ACAGTAACATGGACCGGTTTTCCCGGTAATCCGTATTTGGA (site ACAGTATCTTG) | 0 |
| ACAGTATCATGGACCGGTTTTCCCGGTAATCCGTATTTGGA (site ACAGTATCTTA) | 2.36 |
| ACAGTATCATGGACCGGTTTTCCCGGTAATCCGTATTTGGA (site ACAGTATCTTC) | 2.88 |
| ACAGTATCATGGACCGGTTTTCCCGGTAATCCGTATTTGGA (site ACAGTATCTTG) | 2.02 |
| ACAGTATCATGGACCGGTTTTCCCGGTAATCCGTATTTGGA (site ACAGTATCTTT) | 2.61 |
| ACAGTGGCATGGACCGGTTTTCCCGGTAATCCGTATTTGCT (site ACAGTGGCTAG) | 2.32 |
| ACAGTTCCATGGACCGGTTTTCCCGGTAATCCGTATTTGAA (site ACAGTTCCTTT) | 1.36 |
| ACAGTTTCATGGACCGGTTTTCCCGGTAATCCGTATTTGTA (site ACAGTATCTTG) | 1.19 |
| ACAGTTTCATGGACCGGTTTTCCCGGTAATCCGTATTTGTA (site ACAGTTTCTTA) | 2.49 |
| ACATAGACATGGACCGGTTTTCCCGGTAATCCGTATTTGGG (site ACATAGACTCC) | 0.469 |
| ACATAGACATGGACCGGTTTTCCCGGTAATCCGTATTTGGG (site ACCTAGACTCC) | 0.0175 |
| ACATAGACATGGACCGGTTTTCCCGGTAATCCGTATTTGGG (site ACGTAGACTCC) | 0.00831 |
| ACATAGACATGGACCGGTTTTCCCGGTAATCCGTATTTGGG (site ACTTAGACTCC) | 0.0189 |
| ACATATCCATGGACCGGTTTTCCCGGTAATCCGTATTTGAC (site ACAAATCCTGT) | 0 |
| ACATATCCATGGACCGGTTTTCCCGGTAATCCGTATTTGAC (site ACACATCCTGT) | 0.817 |
| ACATATCCATGGACCGGTTTTCCCGGTAATCCGTATTTGAC (site ACAGATCCTGT) | 0 |
| ACATATCCATGGACCGGTTTTCCCGGTAATCCGTATTTGAC (site ACATATCCTGT) | 1.43 |
| ACATCATCATGGACCGGTTTTCCCGGTAATCCGTATTTGCT (site ACATCATCTAG) | 1.39 |
| ACATCATCATGGACCGGTTTTCCCGGTAATCCGTATTTGCT (site CGATCATCTAG) | 1.05 |
| ACATCTGCATGGACCGGTTTTCCCGGTAATCCGTATTTGGT (site ACATCTGCTAC) | 2.1 |
| ACATCTGCATGGACCGGTTTTCCCGGTAATCCGTATTTGTG (site ACATCTACTCA) | 0.401 |
| ACATCTGCATGGACCGGTTTTCCCGGTAATCCGTATTTGTG (site ACATCTCCTCA) | 0.0207 |
| ACATCTGCATGGACCGGTTTTCCCGGTAATCCGTATTTGTG (site ACATCTGCTCA) | 1.37 |
| ACATCTGCATGGACCGGTTTTCCCGGTAATCCGTATTTGTG (site ACATCTTCTCA) | 0.5 |

| Sequence | recombinant UMI read abundance (log10) |
| --- | --- |
| ACATGAACATGGACCGGTTTTCCCGGTAATCCGTATTTGAG (site ACATGAACTCT) | 2.07 |
| ACATGAACATGGACCGGTTTTCCCGGTAATCCGTATTTGTC (site ACAAGAACTGA) | 0 |
| ACATGAACATGGACCGGTTTTCCCGGTAATCCGTATTTGTC (site ACACGAACTGA) | 0.197 |
| ACATGAACATGGACCGGTTTTCCCGGTAATCCGTATTTGTC (site ACAGGAACTGA) | 0 |
| ACATGAACATGGACCGGTTTTCCCGGTAATCCGTATTTGTC (site ACATGAACTGA) | 1.57 |
| ACATGACCATGGACCGGTTTTCCCGGTAATCCGTATTTGCC (site ACATGACCTGG) | 0 |
| ACATGCGCATGGACCGGTTTTCCCGGTAATCCGTATTTGCA (site ACATGCGCTTG) | 2.86 |
| ACATGTACATGGACCGGTTTTCCCGGTAATCCGTATTTGGT (site ACATGTACTAC) | 1.73 |
| ACATTCTCATGGACCGGTTTTCCCGGTAATCCGTATTTGCC (site ACATTCTCTGG) | 1.63 |
| ACATTGACATGGACCGGTTTTCCCGGTAATCCGTATTTGAA (site ACATTGACTTT) | 1.76 |
| ACATTTACATGGACCGGTTTTCCCGGTAATCCGTATTTGTG (site ACATATACTCA) | 0.00866 |
| ACATTTACATGGACCGGTTTTCCCGGTAATCCGTATTTGTG (site ACATCTACTCA) | 0.162 |
| ACATTTACATGGACCGGTTTTCCCGGTAATCCGTATTTGTG (site ACATGTACTCA) | 0.287 |
| ACATTTACATGGACCGGTTTTCCCGGTAATCCGTATTTGTG (site ACATTTACTCA) | 0.706 |
| ACCAACTCATGGACCGGTTTTCCCGGTAATCCGTATTTGCC (site ACCAACTCTGG) | 1.81 |
| ACCACGCCATGGACCGGTTTTCCCGGTAATCCGTATTTGTA (site ACCACGCCTTA) | 0.0245 |
| ACCACGCCATGGACCGGTTTTCCCGGTAATCCGTATTTGTA (site CCCACGCCTTA) | 0.143 |
| ACCACGCCATGGACCGGTTTTCCCGGTAATCCGTATTTGTA (site GCCACGCCTTA) | 0.00875 |
| ACCACGCCATGGACCGGTTTTCCCGGTAATCCGTATTTGTA (site TCCACGCCTTA) | 0.0133 |
| ACCAGCTCATGGACCGGTTTTCCCGGTAATCCGTATTTGCT (site ACCAGCTCTAG) | 2.25 |
| ACCAGGTCATGGACCGGTTTTCCCGGTAATCCGTATTTGTA (site ACCAGGTCTTA) | 2.54 |
| ACCATATCATGGACCGGTTTTCCCGGTAATCCGTATTTGCA (site ACAGTATCTTG) | 0.937 |
| ACCATATCATGGACCGGTTTTCCCGGTAATCCGTATTTGCA (site ACCATATCTTG) | 2.3 |
| ACCCATCCATGGACCGGTTTTCCCGGTAATCCGTATTTGAC (site ACACATCCTGT) | 0.0114 |
